Data taken from the OligoGym collection.
HELM strings list units from the 5' end as sugar, base in round brackets, then linkage (d deoxyribose, r ribose, m 2'-O-methyl, p phosphodiester). Strings are as the collection lists them, not checked against the first reports. ss, as = sense and antisense strand; [una] = unlocked nucleic acid

Settings: siRNA
Note: test system not given here.

Substance	target mRNA knockdown [%]
RNA1{r(G)p.r(G)p.r(A)p.r(A)p.r(G)p.r(U)p.r(C)p.r(C)p.m(A)p.r(C)p.r(C)p.r(U)p.r(U)p.r(C)p.r(U)p.r(C)p.r(C)p.r(G)p.r(A)p.r(T)p.r(T)}|RNA2{r(U)p.r(C)p.r(G)p.r(G)p.r(A)p.r(G)p.r(A)p.r(A)p.r(G)p.r(G)p.m(U)p.r(G)p.r(G)p.r(A)p.r(C)p.r(U)p.r(U)p.r(C)p.r(C)p.r(T)p.r(T)}$$$RNA1{StrandType:ss}|RNA2{StrandType:as}$	54
RNA1{r(G)p.r(G)p.r(A)p.r(C)p.m(U)p.r(A)p.r(C)p.m(U)p.r(A)p.r(A)p.r(C)p.r(C)p.r(U)p.r(C)p.m(C)p.r(A)p.r(G)p.r(U)p.r(U)p.r(T)p.r(T)}|RNA2{r(A)p.r(A)p.r(C)p.m(U)p.r(G)p.r(G)p.r(A)p.r(G)p.r(G)p.r(U)p.m(U)p.r(A)p.r(G)p.m(U)p.r(A)p.r(G)p.r(U)p.r(C)p.r(C)p.r(T)p.r(T)}$$$RNA1{StrandType:ss}|RNA2{StrandType:as}$	69
RNA1{r(G)p.r(G)p.r(A)p.r(C)p.r(A)p.r(U)p.r(U)p.r(C)p.r(A)p.r(G)p.r(A)p.r(A)p.r(C)p.r(A)p.r(A)p.r(G)p.r(A)p.r(A)p.r(A)p.[una](U)p.[una](U)}|RNA2{[una](U)p.r(U)p.r(U)p.r(C)p.r(U)p.r(U)p.r(G)p.r(U)p.r(U)p.r(C)p.r(U)p.r(G)p.r(A)p.r(A)p.r(U)p.r(G)p.r(U)p.r(C)p.r(C)p.[una](U)p.[una](U)}$$$RNA1{StrandType:ss}|RNA2{StrandType:as}$	75
RNA1{r(G)p.r(G)p.r(A)p.r(C)p.r(A)p.r(U)p.r(U)p.r(C)p.r(A)p.r(G)p.r(A)p.r(A)p.r(C)p.r(A)p.r(A)p.r(G)p.r(A)p.r(A)p.r(A)p.[una](U)p.[una](U)}|RNA2{r(U)p.[una](U)p.r(U)p.r(C)p.r(U)p.r(U)p.r(G)p.r(U)p.r(U)p.r(C)p.r(U)p.r(G)p.r(A)p.r(A)p.r(U)p.r(G)p.r(U)p.r(C)p.r(C)p.[una](U)p.[una](U)}$$$RNA1{StrandType:ss}|RNA2{StrandType:as}$	36
RNA1{r(G)p.r(G)p.r(A)p.r(C)p.r(A)p.r(U)p.r(U)p.r(C)p.r(A)p.r(G)p.r(A)p.r(A)p.r(C)p.r(A)p.r(A)p.r(G)p.r(A)p.r(A)p.r(A)p.[una](U)p.[una](U)}|RNA2{r(U)p.r(U)p.[una](U)p.r(C)p.r(U)p.r(U)p.r(G)p.r(U)p.r(U)p.r(C)p.r(U)p.r(G)p.r(A)p.r(A)p.r(U)p.r(G)p.r(U)p.r(C)p.r(C)p.[una](U)p.[una](U)}$$$RNA1{StrandType:ss}|RNA2{StrandType:as}$	0
RNA1{r(G)p.r(G)p.r(A)p.r(C)p.r(A)p.r(U)p.r(U)p.r(C)p.r(A)p.r(G)p.r(A)p.r(A)p.r(C)p.r(A)p.r(A)p.r(G)p.r(A)p.r(A)p.r(A)p.[una](U)p.[una](U)}|RNA2{r(U)p.r(U)p.r(U)p.[una](C)p.r(U)p.r(U)p.r(G)p.r(U)p.r(U)p.r(C)p.r(U)p.r(G)p.r(A)p.r(A)p.r(U)p.r(G)p.r(U)p.r(C)p.r(C)p.[una](U)p.[una](U)}$$$RNA1{StrandType:ss}|RNA2{StrandType:as}$	50
RNA1{r(G)p.r(G)p.r(A)p.r(C)p.r(A)p.r(U)p.r(U)p.r(C)p.r(A)p.r(G)p.r(A)p.r(A)p.r(C)p.r(A)p.r(A)p.r(G)p.r(A)p.r(A)p.r(A)p.[una](U)p.[una](U)}|RNA2{r(U)p.r(U)p.r(U)p.r(C)p.[una](U)p.r(U)p.r(G)p.r(U)p.r(U)p.r(C)p.r(U)p.r(G)p.r(A)p.r(A)p.r(U)p.r(G)p.r(U)p.r(C)p.r(C)p.[una](U)p.[una](U)}$$$RNA1{StrandType:ss}|RNA2{StrandType:as}$	37
RNA1{r(G)p.r(G)p.r(A)p.r(C)p.r(A)p.r(U)p.r(U)p.r(C)p.r(A)p.r(G)p.r(A)p.r(A)p.r(C)p.r(A)p.r(A)p.r(G)p.r(A)p.r(A)p.r(A)p.[una](U)p.[una](U)}|RNA2{r(U)p.r(U)p.r(U)p.r(C)p.r(U)p.[una](U)p.r(G)p.r(U)p.r(U)p.r(C)p.r(U)p.r(G)p.r(A)p.r(A)p.r(U)p.r(G)p.r(U)p.r(C)p.r(C)p.[una](U)p.[una](U)}$$$RNA1{StrandType:ss}|RNA2{StrandType:as}$	57
